According to US9051300B2, “Herbicides” (Syngenta Limited, priority 2009, dated 2015):

Key:
Format in all cases: in vivo
Avena fatua (AVEFA) [1] = experiment: Post-emergence herbicidal activity, glasshouse pot test; conditions: 312 h, evaluated after 13 days, 100=total damage to plant, 0=no damage
Procedure: (§1) Seeds of a variety of test species are sown in standard soil in pots. After cultivation for one day (pre-emergence) or after 8 days cultivation (post-emergence) under controlled conditions in a glasshouse (at 24/16° C., day/night; 14 hours light; 65% humidity), the plants are sprayed with an aqueous spray solution derived from the formulation of the technical active ingredient in acetone/water (50:50) solution containing 0.5% Tween 20 (polyoxyethylene sorbitan monolaurate, CAS RN 9005-64-5). The test plants are then grown in a glasshouse under controlled conditions in a glasshouse (at 24/16° C., day/night; 14 hours light; 65% humidity) and watered twice daily. After 13 days for pre and post-emergence, the test is evaluated (100=total damage to plant; 0=no damage to plant). Lolium perenne (LOLPE), Alopecurus myosuroides (ALOMY), Echinochloa crus-galli (ECHCG), Avena fatua (AVEFA) Post-Emergence Activity

Lolium perenne (LOLPE) [2] = experiment: as above; conditions: 312 h, evaluated after 13 days, 100=total damage to plant, 0=no damage
Procedure: as §1

[3] = tested on: Alopecurus myosuroides (ALOMY); experiment: as above; conditions: 312 h, evaluated after 13 days, 100=total damage to plant, 0=no damage
Procedure: as §1

[4] = tested on: Echinochloa crus-galli (ECHCG); experiment: as above; conditions: 312 h, evaluated after 13 days, 100=total damage to plant, 0=no damage
Procedure: as §1

Avena fatua (AVEFA) [5] = experiment: Pre-emergence herbicidal activity, glasshouse pot test; conditions: rate not printed (columns shifted), evaluated after 13 days, 100=total damage to plant, 0=no damage
Procedure: as §1, with “Pre-Emergence” for “Post-Emergence”

Lolium perenne (LOLPE) [6] = experiment: as above; conditions: rate not printed (columns shifted), evaluated after 13 days, 100=total damage to plant, 0=no damage
Procedure: as §1, with “Pre-Emergence” for “Post-Emergence”

[7] = tested on: Alopecurus myosuroides (ALOMY); experiment: as above; conditions: rate not printed (columns shifted), evaluated after 13 days, 100=total damage to plant, 0=no damage
Procedure: as §1, with “Pre-Emergence” for “Post-Emergence”

[8] = tested on: Echinochloa crus-galli (ECHCG); experiment: as above; conditions: rate not printed (columns shifted), evaluated after 13 days, 100=total damage to plant, 0=no damage
Procedure: as §1, with “Pre-Emergence” for “Post-Emergence”

[9] = tested on: Winter Wheat variety 'Hereward'; experiment: Crop damage to winter wheat seed treated with safener cloquintocet mexyl, post-emergence spray; conditions: 250 g/ha, seed treated with cloquintocet mexyl 0.5 g/kg seed, evaluated after 13 days, 100=total damage, 0=no damage
Procedure: Seeds of the Winter Wheat variety ‘Hereward’ were seed treated with a wettable powder formulation of the cereal herbicide safener, cloquintocet mexyl, at a rate of 0.5 grams per kilogram of dry seed prior to the initiation of glasshouse testing. One seed was sown per 1.5 inch plastic pot into a sandy loam soil at a depth of 1 cm, 8 days prior to application of the test compounds and was watered and grown under controlled conditions in a glasshouse (at 24/16° C., day/night; 14 hours light; 65% humidity). The plants were sprayed post-emergence with an aqueous spray solution derived from the formulation of the technical active ingredient in acetone/water (50:50) solution containing 0.5% Tween 20 (polyoxyethylene sorbitan monolaurate, CAS RN 9005-64-5). The test plants were then grown in a glasshouse under controlled conditions in a glasshouse (at 24/16° C., day/night; 14 hours light; 65% humidity) and watered twice daily. After 13 days for pre and post-emergence, the test was evaluated (100=total damage to plant; 0=no damage to plant).

[10] = tested on: Winter Wheat variety 'Hereward'; experiment: Crop damage to winter wheat, post-emergence spray; conditions: 250 g/ha, no safener, evaluated after 13 days, 100=total damage to plant, 0=no damage
Procedure: Seeds of the Winter Wheat variety ‘Hereward’ were sown in standard soil in pots. After 8 days cultivation under controlled conditions in a glasshouse (at 24/16° C., day/night; 14 hours light; 65% humidity), the plants were sprayed post-emergence with an aqueous spray solution derived from the formulation of the technical active ingredient in acetone/water (50:50) solution containing 0.5% Tween 20 (polyoxyethylene sorbitan monolaurate, CAS RN 9005-64-5). The test plants were then grown in a glasshouse under controlled conditions in a glasshouse (at 24/16° C., day/night; 14 hours light; 65% humidity) and watered twice daily. After 13 days for pre and post-emergence, the test was evaluated (100=total damage to plant; 0=no damage to plant).

Row | Structure (SMILES) | pest or weed control at 250 g/ha (Avena fatua (AVEFA) [1]) [%] | pest or weed control at 250 g/ha (Lolium perenne (LOLPE) [2]) [%] | pest or weed control at 250 g/ha [3] [%] | pest or weed control at 250 g/ha [4] [%] | Pre-Emergence Activity AVEFA (damage to plant) (Avena fatua (AVEFA) [5]) | Pre-Emergence Activity LOLPE (damage to plant) (Lolium perenne (LOLPE) [6]) | Pre-Emergence Activity ALOMY (damage to plant) [7] | Pre-Emergence Activity ECHCG (damage to plant) [8] | Winter Wheat (Hereward) + cloquintocet mexyl (damage to plant) [9] | Winter Wheat (Hereward) (damage to plant) [10]
1 | Cc1cnc(-c2ccc(Cl)cc2)nc1C1C(=O)CC(CC2CCOCC2)C1=O (centres unmarked) [Compound A8] | 50 | 50 | 50 | 90 | 60 | 80 | 50 | 100 | 0 | 20
2 | Cc1sc(-c2ccc(Cl)cc2)nc1C1C(=O)CC(CC2CCOCC2)C1=O (centres unmarked) [Compound A18] | 100 | 100 | 100 | 100 | 90 | 100 | 80 | 100 | 90 | 80
3 | Cc1sc(-c2ccccc2)nc1C1C(=O)CC(CC2CCOCC2)C1=O (centres unmarked) [Compound A17] | 90 | 100 | 90 | 100 | 50 | 100 | 70 | 100 | 40 | 60
4 | Cc1cnc(-c2ccc(Cl)cc2)nc1C1C(=O)C/C(=C\C2CCOCC2)C1=O (centres unmarked) [Compound A9] | 60 | 40 | 20 | 100 | 50 | 70 | 10 | 100 | 0 | 50
5 | CCc1sc(-c2ccc(Cl)cc2)nc1C1C(=O)C/C(=C\C2CCOCC2)C1=O (centres unmarked) [Compound A7] | 100 | 60 | 90 | 100 | 70 | 80 | 70 | 100 | 40 | 90
6 | Cc1sc(-c2ccc(C(C)C)cc2)nc1C1C(=O)C/C(=C\C2CCOCC2)C1=O (centres unmarked) [Compound A1] | 0 | 0 | 10 | 10 | 0 | 10 | 10 | 50 | 0 | 20
7 | Cc1cc(-c2ccc(Cl)cc2)nn1C1C(=O)C/C(=C/c2ccc(F)cn2)C1=O (centres unmarked) [Compound A22] | 60 | 50 | 70 | 90 | 20 | 60 | 40 | 70 | 10 | 60
8 | Cc1sc(-c2ccc(Cl)cc2)nc1C1C(=O)CC(Cc2ccc(F)cn2)C1=O (centres unmarked) [Compound A12] | 90 | 100 | 100 | 100 | 90 | 100 | 100 | 100 | 80 | 70
9 | Cc1sc(-c2ccc(Cl)cc2)nc1C1C(=O)C/C(=C\C2CCOCC2)C1=O (centres unmarked) [Compound A24] | 90 | 90 | 100 | 100 | 60 | 100 | 60 | 100 | 0 | 70
10 | Cc1cc(-c2ccc(Cl)cc2)nn1C1C(=O)C/C(=C\c2ccc(F)cn2)C1=O (centres unmarked) [Compound A21] | 30 | 60 | 70 | 90 | 10 | 90 | 40 | 90 | 10 | 20
11 | Cc1cc(-c2ccc(Cl)cc2)nn1C1C(=O)CC(CC2CCOCC2)C1=O (centres unmarked) [Compound A25] | 100 | 100 | 100 | 100 | 70 | 90 | 70 | 100 | 40 | 80
